# Target: T1, WDR5 (Homo sapiens (Human), UniProt P61964)
# Assay: TR-FRET binding assay, displacement of 10mer-Thr-FAM probe from His-tagged WDR5
# Details: Inhibition of WDR5 by TR-FRET assay
# Experimental: The LanthaScreenTM Elite Tb-anti-HIS Antibody from ThermoFisher Scientific was used for this purpose. […] The ratio of the 520 and 495 signals are then utilized to generate a dose-response curve to calculate an IC50 value. […] WDR[…] tag protein is used at 2 nM.
row,Compound,Ki [nM]
1,"COc1cc(OC)cc(C(C)NC(=O)c2cc(CNC3=NCCN3)cc(-c3ccc(F)nc3C)c2)c1 (stereo not shown) [Example 7, 3-(((4,5-Dihydro-1H-imidazol-2-yl)amino)methyl)-N-(1-(3,5-dimethoxyphenyl)ethyl)-5-(6-fluoro-2-methylpyridin-3-yl)benzamide]",0.11
2,"Cc1cccc(CNC(=O)c2cc(Cn3ccnc3)cc(-c3ccc(F)cc3Cl)n2)n1 [Example 151, 4-((1H-Imidazol-1-yl)methyl)-6-(2-chloro-4-fluorophenyl)-N-((6-methylpyridin-2-yl)methyl)picolinamide]",32
3,"Cc1ccnc(C(NC(=O)c2cc(Cn3ccnc3)cc(-c3ccc(F)cc3Cl)n2)C2CC2)c1 (stereo not shown) [Example 150, 4-((1H-Imidazol-1-yl)methyl)-6-(2-chloro-4-fluorophenyl)-N-(cyclopropyl(4-methylpyridin-2-yl)methyl)picolinamide]",5.71
4,"Cc1ccnc(C(NC(=O)c2cc(Cn3ccnc3)cc(-c3ccc(F)nc3C)c2)C2CC2)c1 (stereo not shown) [Example 137, 3-((1H-Imidazol-1-yl)methyl)-N-(cyclopropyl(4-methylpyridin-2-yl)methyl)-5-(6-fluoro-2-methylpyridin-3-yl)benzamide]",2
5,"Cc1nc(F)ccc1-c1cc(Cn2ccnc2)cc(C(=O)NC(C2CC2)C2CC2)c1 [Example 133, 3-((1H-imidazol-1-yl)methyl)-N-(dicyclopropylmethyl)-5-(6-fluoro-2-methylpyridin-3-yl)benzamide]",4.6

# Target: T1, WDR5
# Assay: Fluorescence polarization anisotropy (FPA) competition assay, displacement of FITC-MLL or 10mer-Thr-FAM peptide
# Type: binding
# Details: Inhibition of WDR5 by FPA assay
# Excerpt: The assay is run in 384-well format and is read on a BioTek Cytation. […] Replicate values are fit to a 4-parameter fit in XLFit to generate a single IC50 value for each compound that is then converted to a Ki value. Experiments are repeated to generate a 2nd, independent Ki value; values from the two experiments are averaged to produce the reported Ki value for the compound.
row,Compound,Ki [nM]
1,"Cc1cccc(CNC(=O)c2cc(Cn3ccnc3)cc(-c3ccc(F)cc3Cl)n2)n1 [Example 151, 4-((1H-Imidazol-1-yl)methyl)-6-(2-chloro-4-fluorophenyl)-N-((6-methylpyridin-2-yl)methyl)picolinamide]",8.7
2,"Cc1ccnc(C(NC(=O)c2cc(Cn3ccnc3)cc(-c3ccc(F)cc3Cl)n2)C2CC2)c1 (stereo not shown) [Example 150, 4-((1H-Imidazol-1-yl)methyl)-6-(2-chloro-4-fluorophenyl)-N-(cyclopropyl(4-methylpyridin-2-yl)methyl)picolinamide]",1.1
3,"Cc1ccnc(C(NC(=O)c2cc(Cn3ccnc3)cc(-c3ccc(F)nc3C)c2)C2CC2)c1 (stereo not shown) [Example 137, 3-((1H-Imidazol-1-yl)methyl)-N-(cyclopropyl(4-methylpyridin-2-yl)methyl)-5-(6-fluoro-2-methylpyridin-3-yl)benzamide]",< 1
4,"CCC(NC(=O)c1cc(Cn2ccnc2)cc(-c2ccc(F)cc2Cl)n1)C1CC1 (stereo not shown) [Example 152, 4-((1H-Imidazol-1-yl)methyl)-6-(2-chloro-4-fluorophenyl)-N-(1-cyclopropylpropyl)picolinamide]",13.1
5,"COc1cc(CNC(=O)c2cc(CNC3=NCCN3)cc(-c3ccc(F)cc3Cl)c2)cc(OC)c1 [Example 3, 2′-chloro-5-(((4,5-dihydro-1H-imidazol-2-yl)amino)methyl)-N-(3,5-dimethoxybenzyl)-4′-fluoro-[1,1′-biphenyl]-3-carboxamide]",2.7
6,"O=C(NCc1ccc(Cl)c(Cl)c1)c1cc(Cn2ccnc2)cc(N2CCCC2)c1 [Example 136, 3-((1H-Imidazol-1-yl)methyl)-N-(3,4-dichlorobenzyl)-5-(pyrrolidin-1-yl)benzamide]",6.5
7,"O=C(NCc1ccc(Cl)c(Cl)c1)c1cc(Cn2ccnc2C(F)(F)F)cc(-c2ccc(F)cc2Cl)c1 [Example 135, 2′-Chloro-N-(3,4-dichlorobenzyl)-4′-fluoro-5-((2-(trifluoromethyl)-1H-imidazol-1-yl)methyl)-[1,1′-biphenyl]-3-carboxamide]",> 10000
8,"Cc1nc(F)ccc1-c1cc(Cn2ccnc2)cc(C(=O)NC(C2CC2)C2CC2)c1 [Example 133, 3-((1H-imidazol-1-yl)methyl)-N-(dicyclopropylmethyl)-5-(6-fluoro-2-methylpyridin-3-yl)benzamide]",3.5
9,"O=C(NC(C1CC1)C1CC1)c1cc(CNC2=NCCN2)cc(-c2ccc(F)cc2Cl)c1 [Example 2, 2′-Chloro-N-(dicyclopropylmethyl)-5-(((4,5-dihydro-1H-imidazol-2-yl)amino)methyl)-4′-fluoro-[1,1′-biphenyl]-3-carboxamide]",6
10,"Cc1nc(F)ccc1-c1cc(Cn2ccnc2)cc(C(=O)NC(C)C2CCCCC2)c1 (stereo not shown) [Example 132, 3-((1H-Imidazol-1-yl)methyl)-N-(1-cyclohexylethyl)-5-(6-fluoro-2-methylpyridin-3-yl)benzamide]",3.9

# Same assay, conditions: Table B2, WDR5 WIN-site binding affinity; values not less than 1 nM (FPA)
row,Compound,Ki [nM]
1,COc1ccc(CNC(=O)c2ccc(F)c(CNC3=NCCN3)c2)cc1OC [Example B19],8.06
2,COc1cc(OC)cc(C(C)NC(=O)c2ccc(F)c(CNC3=NCCN3)c2)c1 (stereo not shown) [Example B18],1.81
3,COc1ccnc(CNC(=O)c2ccc(F)c(CNC3=NCCN3)c2)c1 [Example B22],1.5
4,"O=C(NCc1cc(Cl)cc(Cl)c1)c1cccc(CNC2=NCCN2)c1 [Example B1, N-(3,5-dichlorobenzyl)-3-(((4,5-dihydro-1H-imidazol-2-yl)amino)methyl)benzamide]",18
5,COc1cccc(CNC(=O)c2ccc(F)c(CNC3=NCCN3)c2)n1 [Example B25],74.2
6,COc1ccc(C(=O)NCc2ccc(Cl)c(F)c2)cc1CNC1=NCCN1 [Example B41],1.76
7,O=C(NCc1cc(Cl)cc(Cl)c1)c1cc(Cl)cc(CNC2=NCCN2)c1 [Example B9],17.4
8,CCOc1ccc(C(=O)NC(c2cc(C)ccn2)C2CC2)cc1CNC1=NCCN1 (stereo not shown) [Example B50],12.4
9,O=C(NCc1ccc(Cl)c(Cl)c1)c1cc(Cl)cc(CNC2=NCCN2)c1 [Example B8],10.7
10,Cc1ccnc(C(NC(=O)c2cc(CNC3=NCCN3)c(F)cc2F)C2CC2)c1 (stereo not shown) [Example B48],2.17
11,COc1ccc(C(=O)NCc2ccc(Cl)cn2)cc1CNC1=NCCN1 [Example B44],20.3
12,Cc1cnc(CNC(=O)c2ccc(F)c(CNC3=NCCN3)c2)cn1 [Example B46],3.96
13,"3-(((4,5-dihydro-1H-imidazol-2-yl)amino)methyl)-N-(3,5-dimethoxybenzyl)-4,5-difluorobenzamide [Example B30]",5.32
14,Cc1ccnc(CNC(=O)c2ccc(F)c(CNC3=NCCN3)c2)c1 [Example B29],24.9
15,CC(C)Oc1ccc(C(=O)NCc2ccc(Cl)c(Cl)c2)cc1CNC1=NCCC1 [Example B125],> 33
16,COc1cc(CNC(=O)c2cc(CNC3=NCCN3)ccc2F)cc(OC)c1 [Example B37],8.71
17,"CCOc1ccc(C(=O)NC(C)c2cc(OC)cc(OC)c2)cc1CNC1=NCCN1 (stereo not shown) [Example B51, 3-(((4,5-dihydro-1H-imidazol-2-yl)amino)methyl)-N-(1-(3,5-dimethoxyphenyl)ethyl)-4-ethoxybenzamides]",9.77
18,COc1ccc(C(=O)NCc2cc(Cl)ccn2)cc1CNC1=NCCN1 [Example B39],1.39

# Same assay, conditions: Table C2, WDR5 WIN-site binding affinity; values not less than 1 nM (FPA)
row,Compound,Ki [nM]
1,"COc1cc(OC)cc(C(C)NC(=O)c2cc(CNC3=NCCN3)ccn2)c1 (stereo not shown) [Example C20, 4-(((4,5-dihydro-1H-imidazol-2-yl)amino)methyl)-N-(1-(3,5-dimethoxyphenyl)ethyl)picolinamide]",30.3
2,COc1cc(CNC(=O)c2cc(CNC3=NCCC3)cc(-c3ccc(F)cc3C)n2)cc(OC)c1 [Example C24],11.7
3,"COc1cc(OC)cc(C(C)NC(=O)c2ccnc(CNC3=NCCN3)c2)c1 (stereo not shown) [Example C34, 2-(((4,5-dihydro-1H-imidazol-2-yl)amino)methyl)-N-(1-(3,5-dimethoxyphenyl)ethyl)isonicotinamide]",32.5
4,"COc1cc(OC)cc(C(C)NC(=O)c2ccnc(CNC3=NCCC3)c2)c1 (stereo not shown) [Example C35, 2-(((3,4-dihydro-2H-pyrrol-5-yl)amino)methyl)-N-(1-(3,5-dimethoxyphenyl)ethyl)isonicotinamide]",44.1
5,COc1cc(CNC(=O)c2cc(CNC3=NCCC3)cc(-c3ccc(F)cc3C(F)(F)F)n2)cc(OC)c1 [Example C27],1.58
6,Cc1cnc(C(C)NC(=O)c2cc(CNC3=NCCC3)cc(-c3ccc(F)cc3C(F)(F)F)n2)cc1Cl (stereo not shown) [Example C32],1.54

# Test system: MV4:11 cells
# Assay: Cellular viability / anti-proliferative activity, CellTiter-Glo, 7 day protocol
# Type: cell-based, human
# Details: 168 h; cellular proliferation of MV4:11 human cancer cell lines, 7 day
# Experimental: Anti proliferative activity using MLL-harboring cell lines. MV4:11 cells are grown in RPMI-1640 media supplemented with 10% FBS and 1% penicillin/streptomycin. Viability assays are performed by dispensing […] into each well of an opaque 384-well plate and adding compounds at the indicated concentrations in a final volume of 32 μL and a final concentration of DMSO of 0.1% for all samples. After a set incubation period, 7 day protocol, the viability of cells in each well is assessed using the CellTiter-Glo assay (Promega), read on a GloMax 96 Microplane Luminometer (Promega). Serial dilutions of each cell type are included in all assays to generate standard curves and determine assay measurements are taken within the dynamic range of the instrument. GI50 values are calculated based on three biological replicates, each with three technical replicates. Data are expressed as mean plus/minus S.E.M.
row,Compound,GI50 [nM]
1,"COc1cc(OC)cc(C(C)NC(=O)c2cc(CNC3=NCCN3)cc(-c3ccc(F)nc3C)c2)c1 (stereo not shown) [Example 7, 3-(((4,5-Dihydro-1H-imidazol-2-yl)amino)methyl)-N-(1-(3,5-dimethoxyphenyl)ethyl)-5-(6-fluoro-2-methylpyridin-3-yl)benzamide]",280
2,"Cc1cc(CNC(=O)c2cc(CNC3=NCCC3)cc(-c3ccc(F)cc3C)c2)ccc1Cl [Example 64, N-(4-Chloro-3-methylbenzyl)-5-(((3,4-dihydro-2H-pyrrol-5-yl)amino)methyl)-4′-fluoro-2′-methyl-[1,1′-biphenyl]-3-carboxamide]",280
3,"O=C(NCc1ccc(Cl)c(Cl)c1)c1cc(Cn2ccnc2)cc(-c2ccc(F)cc2Cl)c1 [Example 116, 5-((1H-Imidazol-1-yl)methyl)-2′-chloro-N-(3,4-dichlorobenzyl)-4′-fluoro-[1,1′-biphenyl]-3-carboxamide]",3800
4,"Cc1cc(F)ccc1-c1cc(Cn2ccnc2C)cc(C(=O)NCc2ccc(Cl)c(Cl)c2)n1 [Example 156, N-(3,4-dichlorobenzyl)-6-(4-fluoro-2-methylphenyl)-4-((2-methyl-1H-imidazol-1-yl)methyl)picolinamide]",630
5,"Cc1nc(F)ccc1-c1cc(Cn2ccnc2C)cc(C(=O)NCc2ccc(Cl)c(Cl)c2)n1 [Example 164, N-(3,4-dichlorobenzyl)-6′-fluoro-2′-methyl-4-((2-methyl-1H-imidazol-1-yl)methyl)-[2,3′-bipyridine]-6-carboxamide]",1100
6,"Cc1cnccc1-c1cc(Cn2ccnc2C)cc(C(=O)NCc2ccc(Cl)c(Cl)c2)n1 [Example 166, N-(3,4-Dichlorobenzyl)-3′-methyl-4-((2-methyl-1H-imidazol-1-yl)methyl)-[2,4′-bipyridine]-6-carboxamide]",240

# Same assay, conditions: Homo sapiens, 168 h; MV4:11 leukemia cells after a 7 day incubation period
row,Compound,GI50 [nM]
1,"COc1cc(CNC(=O)c2ccc(F)c(CNC3=NCCN3)c2)cc(OC)c1 [Example B15, 3-(((4,5-dihydro-1H-imidazol-2-yl)amino)methyl)-N-(3,5-dimethoxybenzyl)-4-fluorobenzamide]",893

# Source: patent US10807959B2, “WDR5-MLL1 inhibitors and modulators” (Vanderbilt University, priority 2018, dated 2020)
